Read-outs that look alike come from different tables or passages of the source.
Assays:
human topoisomerase I = target: T1, human topoisomerase I (Homo sapiens, UniProt P11387); conditions: relative topoisomerase I inhibition levels, previously determined, six levels (0 - 5, +++++ = 5); cited from earlier work
T1 sequence (P11387 1-765): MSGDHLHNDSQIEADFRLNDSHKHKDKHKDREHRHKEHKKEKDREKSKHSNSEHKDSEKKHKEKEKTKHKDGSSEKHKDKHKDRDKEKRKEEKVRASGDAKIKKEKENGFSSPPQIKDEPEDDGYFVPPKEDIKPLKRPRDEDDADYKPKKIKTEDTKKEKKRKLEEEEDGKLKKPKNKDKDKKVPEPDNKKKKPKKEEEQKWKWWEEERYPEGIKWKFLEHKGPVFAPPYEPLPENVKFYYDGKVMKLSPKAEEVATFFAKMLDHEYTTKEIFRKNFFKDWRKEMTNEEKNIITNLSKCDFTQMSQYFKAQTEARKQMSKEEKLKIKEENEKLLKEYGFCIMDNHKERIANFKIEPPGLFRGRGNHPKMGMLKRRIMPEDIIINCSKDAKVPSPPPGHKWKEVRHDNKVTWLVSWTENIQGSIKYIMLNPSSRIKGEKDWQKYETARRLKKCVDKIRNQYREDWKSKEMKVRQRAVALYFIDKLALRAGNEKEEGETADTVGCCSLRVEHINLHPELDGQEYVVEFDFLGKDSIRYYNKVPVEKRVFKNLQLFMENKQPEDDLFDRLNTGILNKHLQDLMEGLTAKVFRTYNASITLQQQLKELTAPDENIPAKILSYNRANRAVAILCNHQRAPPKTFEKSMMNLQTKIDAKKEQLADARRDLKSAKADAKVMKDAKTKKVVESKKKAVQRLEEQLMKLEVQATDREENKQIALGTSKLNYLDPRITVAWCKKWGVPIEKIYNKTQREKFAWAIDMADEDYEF

NCI-60 cancer cell lines = experiment: NCI-60 cancer cell line drug screen (GI50, MGM); format: cell-based, human; conditions: Homo sapiens; for mean GI50 across NCI-60 panel (MGM): average of GI50 values across the entire panel of NCI-60 cancer cell lines
Experimental: Cancer cells were incubated with the test compounds at five concentrations ranging from 100 μM to 10 nM for 48 h. […] The approximate average of GI50 values across the entire panel of NCI-60 cancer cell lines for each compound was recorded as the MGM value.

[1] = tested on: MYC protein expression in MCF-7 breast cancer cells; experiment: Western blotting of MYC protein level in MCF-7 cells; format: cell-based, human; conditions: Homo sapiens, MCF7; western blotting, MCF-7 cells, 0.5, 1, 2, and 4 μM, 24 hours; read-out: MYC Inhibition
Experimental: MCF-7 cells were incubated with each compound at four concentrations (0.5, 1, 2, and 4 μM) for 24 hours, and the MYC protein levels were measured (FIG. 3A and FIGS. 12 A to 12 F).
Cells were incubated at 37° C. with 5% CO2.
The gels were cut into strips that contained the proteins of interest and transferred to nitrocellulose membrane (I323002, Invitrogen) using an iBlot 2 Dry Transfer Device (Invitrogen). Immunoblotting was carried out according to standard procedures using the ECL detection method. The membrane was hybridized with the following antibodies: monoclonal anti-MYC (1:1000 dilution; rabbit, Cell Signaling Technology), monoclonal anti-GAPDH (1:2000 dilution; rabbit, Cell Signaling Technology).

[2] = A549, Non-Small Cell Lung Cancer, A549/ATCC, read-out: Antiproliferative Activities [GI50 (μM)]
[3] = CCRF-CEM, Leukemia, CCRF-CEM, read-out: Antiproliferative Activities [GI50 (μM)]
[4] = COLO 205, Colon Cancer, COLO 205, read-out: Antiproliferative Activities [GI50 (μM)]
[5] = HCC 2998, Colon Cancer, HCC-2998, read-out: Antiproliferative Activities [GI50 (μM)]
[6] = HCT-116, Colon Cancer, HCT-116, read-out: Antiproliferative Activities [GI50 (μM)]
[7] = HL-60, Leukemia, HL-60(TB), read-out: Antiproliferative Activities [GI50 (μM)]
[8] = HOP-62, Non-Small Cell Lung Cancer, HOP-62, read-out: Antiproliferative Activities [GI50 (μM)]
[9] = HOP-92, Non-Small Cell Lung Cancer, HOP-92, read-out: Antiproliferative Activities [GI50 (μM)]
[10] = K562, Leukemia, K-562, read-out: Antiproliferative Activities [GI50 (μM)]
[11] = Leukemia, SR, read-out: Antiproliferative Activities [GI50 (μM)]
[12] = MOLT-4, Leukemia, MOLT-4, read-out: Antiproliferative Activities [GI50 (μM)]
[13] = NCI-H23, Non-Small Cell Lung Cancer, NCI-H23, read-out: Antiproliferative Activities [GI50 (μM)]
[14] = NCI-H226, Non-Small Cell Lung Cancer, NCI-H226, read-out: Antiproliferative Activities [GI50 (μM)]
[15] = NCI-H460, Non-Small Cell Lung Cancer, NCI-H460, read-out: Antiproliferative Activities [GI50 (μM)]
[16] = NCI-H522, Non-Small Cell Lung Cancer, NCI-H522, read-out: Antiproliferative Activities [GI50 (μM)]
[17] = RPMI-8226, Leukemia, RPMI-8226, read-out: Antiproliferative Activities [GI50 (μM)]
[18] = EKVX, Non-Small Cell Lung Cancer, EKVX, read-out: Antiproliferative Activities [GI50 (μM)]
[19] = NCI-H322M, Non-Small Cell Lung Cancer, NCI-H322M, read-out: Antiproliferative Activities [GI50 (μM)]

SMILES	Top1 Inhibiton (human topoisomerase I)	minimal effective concentration [1] [µM]	GI50 (NCI-60 cancer cell lines; [2]) [µM]	GI50 (NCI-60 cancer cell lines; [3]) [µM]	GI50 (NCI-60 cancer cell lines; [4]) [µM]	GI50 (NCI-60 cancer cell lines; [5]) [µM]	GI50 (NCI-60 cancer cell lines; [6]) [µM]	GI50 (NCI-60 cancer cell lines; [7]) [µM]	GI50 (NCI-60 cancer cell lines; [8]) [µM]	GI50 (NCI-60 cancer cell lines; [9]) [µM]	GI50 (NCI-60 cancer cell lines; [10]) [µM]	GI50 (NCI-60 cancer cell lines; [12]) [µM]	GI50 (NCI-60 cancer cell lines; [13]) [µM]	GI50 (NCI-60 cancer cell lines; [14]) [µM]	GI50 (NCI-60 cancer cell lines; [15]) [µM]	GI50 (NCI-60 cancer cell lines; [16]) [µM]	GI50 (NCI-60 cancer cell lines; [17]) [µM]	mean GI50 across NCI-60 panel (MGM) (NCI-60 cancer cell lines) [nM]	GI50 (NCI-60 cancer cell lines; [18]) [µM]	GI50 (NCI-60 cancer cell lines; [19]) [µM]	also measured
COc1cnc2c(c1)C(=O)c1c-2n(CCCN2CCNCC2)c(=O)c2cc(Cl)ccc12 [Compound 1]	+ (weak inhibition, +, MYC expression inhibited at 4.0 μM)																				
COc1cnc2c(c1)C(=O)c1c-2n(CCCN2CCN(C)CC2)c(=O)c2cc(Cl)ccc12 [Compound 4]	+ (weak inhibition, +, MYC expression inhibited at 4.0 μM)																				
CCNCCCn1c2c(c3ccc(F)cc3c1=O)C(=O)c1cc(OC)cnc1-2 [Compound 7]	++ (medium inhibition, ++, MYC expression inhibited at 2.0 μM, or no clear dose-dependent MYC inhibition)																				
COc1cnc2c(c1)C(=O)c1c-2n(CCCN2CCNCC2)c(=O)c2cc(F)ccc12 [Compound 8]	+ (weak inhibition, +, MYC expression inhibited at 4.0 μM)																				
COc1cc2c3c(n(CCCNCCO)c(=O)c2cc1OC)-c1cc2c(cc1C3=O)OCO2 [Compound 44]		0.5 to 1																			GI50 (NCI-60 cancer cell lines; A549, read-out: Antiproliferative Activities [GI50 (μM)]): 0.03 µM; GI50 (NCI-60 cancer cell lines; CCRF-CEM, read-out: Antiproliferative Activities [GI50 (μM)]): < 0.01 µM; GI50 (NCI-60 cancer cell lines; COLO 205, read-out: Antiproliferative Activities [GI50 (μM)]): 0.38 µM; GI50 (NCI-60 cancer cell lines; EKVX, read-out: Antiproliferative Activities [GI50 (μM)]): 0.26 µM; GI50 (NCI-60 cancer cell lines; HCT-116, read-out: Antiproliferative Activities [GI50 (μM)]): 0.07 µM; GI50 (NCI-60 cancer cell lines; HL-60, read-out: Antiproliferative Activities [GI50 (μM)]): < 0.01 µM; GI50 (NCI-60 cancer cell lines; HOP-62, read-out: Antiproliferative Activities [GI50 (μM)]): 0.01 µM; GI50 (NCI-60 cancer cell lines; HOP-92, read-out: Antiproliferative Activities [GI50 (μM)]): 0.83 µM; GI50 (NCI-60 cancer cell lines; K562, read-out: Antiproliferative Activities [GI50 (μM)]): 0.02 µM; GI50 (NCI-60 cancer cell lines; MOLT-4, read-out: Antiproliferative Activities [GI50 (μM)]): < 0.01 µM; GI50 (NCI-60 cancer cell lines; NCI-H23, read-out: Antiproliferative Activities [GI50 (μM)]): < 0.01 µM; GI50 (NCI-60 cancer cell lines; NCI-H226, read-out: Antiproliferative Activities [GI50 (μM)]): 0.21 µM; GI50 (NCI-60 cancer cell lines; NCI-H322M, read-out: Antiproliferative Activities [GI50 (μM)]): 0.05 µM; GI50 (NCI-60 cancer cell lines; NCI-H460, read-out: Antiproliferative Activities [GI50 (μM)]): < 0.01 µM; GI50 (NCI-60 cancer cell lines; NCI-H522, read-out: Antiproliferative Activities [GI50 (μM)]): < 0.01 µM; GI50 (NCI-60 cancer cell lines; RPMI-8226, read-out: Antiproliferative Activities [GI50 (μM)]): 0.01 µM; GI50 (NCI-60 cancer cell lines; read-out: Antiproliferative Activities [GI50 (μM)]): < 0.01 µM; IC50 (NCI-60 cancer cell lines; read-out: MGM): 60 nM
COc1cc2c3c(n(CCCN)c(=O)c2cc1OC)-c1cc2c(cc1C3=O)OCO2 [Compound 45]	+++ (strong inhibition, +++, MYC expression inhibited at 0.5 to 1.0 μM)	2	0.11	< 0.01	0.3	0.1	0.12	0.22	0.06	1.65	0.09	< 0.01	0.13	1.39	0.02	0.07	< 0.01	180			GI50 (NCI-60 cancer cell lines; [11]): < 0.01 µM
COc1cc2c3c(n(CCCNCCN)c(=O)c2cc1OC)-c1cc2c(cc1C3=O)OCO2 [Compound 46]	+++ (strong inhibition, +++, MYC expression inhibited at 0.5 to 1.0 μM)	4	0.74	< 0.01	0.08		0.13	0.25	0.05	3.27	0.28	< 0.01	0.05	0.65	0.43	0.4	0.48		2.06	0.53	
COc1cc2c3c(n(CCCN4CCC(N)CC4)c(=O)c2cc1OC)-c1cc2c(cc1C3=O)OCO2 [Compound 48]	+ (weak inhibition, +, MYC expression inhibited at 4.0 μM)	4	0.65	0.3	1.14	0.14	0.12	> 50	0.42		1.59	0.42	0.71	0.66	0.24	13.1	0.2	1020	1.31	1.05	
COc1cc2c3c(n(CCCN4CCN(C)CC4)c(=O)c2cc1OC)-c1cc2c(cc1C3=O)OCO2 [Compound 49]	+ (weak inhibition, +, MYC expression inhibited at 4.0 μM)	4	18.7	2.44	10.3	< 0.01	1.49	19.5	18	19.8	6.49	< 0.01	11.9	13.9	5.81	15.4	2.39	12000	17.7	15.6	
COc1cc2c3c(n(CCCNC4=NCCS4)c(=O)c2cc1OC)-c1cc2c(cc1C3=O)OCO2 [Compound 50]		2	< 0.01	< 0.01	< 0.01	< 0.01	< 0.01	0.29	< 0.01	< 0.01	< 0.01	< 0.01	0.02	0.05	< 0.01	0.02	0.02	40	2.57	3.18	GI50 (NCI-60 cancer cell lines; [11]): < 0.01 µM
COc1cc2c(=O)n(CCCN3CCOCC3)c3c(c2cc1OCCCN1CCCC1)C(=O)c1cc2c(cc1-3)OCO2 [Compound 55]	++ (medium inhibition, ++, MYC expression inhibited at 2.0 μM, or no clear dose-dependent MYC inhibition)	4	0.11	< 0.01	0.31	3.32	0.16	0.3	0.19	1.66	0.19	< 0.01	0.71	2.12	0.03	0.04	0.25	340		1	GI50 (NCI-60 cancer cell lines; [11]): < 0.01 µM

Source: patent US20210382058A1, “PATIENT SELECTION FOR TREATMENT OF MYC POSITIVE CANCERS WITH INDENOISOQUINOLINES” (Purdue Research Foundation, priority 2020, published 2021)
